Source: article PMC10955127 (Frontiers in Pharmacology, 2024)
Read-outs that look alike come from different tables or passages of the source.

Assays:
[1] = In vitro skin penetration and metabolism, fresh viable pig skin on static Franz cells; conditions: 24 h; epidermis + dermis + receptor fluid
Description: Fresh viable pig skin (without hot steam treatment, by-product from meat industry) was obtained from a local, commercial butcher (Hammoor, Germany). The back skin was from female pigs (bred from “Dänische Landrasse” (female) and Pietrain (male) pigs, ~130 days old, 100 kg body weight). Pig skin samples were gently dry-shaved and washed with water before use. For the experiment, 2 replicate discs from each of 3 donors were used.
Skin of full-thickness was mounted on static Franz cells with a 4.9 cm² application area. The receptor compartment of the diffusion cell was filled with approx. 5 ml RF (1% BSA, 0.9% NaCl, 0.05% gentamycin sulfate in water), above a magnetic stirrer set to low rotation. […] The experiment was conducted using non-occluded conditions.
The dermal absorption was calculated as the total amount present within epidermis (without the amount in the total SC strips), dermis and RF.

in vitro [2] = type: in vitro ADME
Experimental: […]. Samples were precipitated with an equal volume of acetonitrile containing internal standards (1 μM diazepam, 1 μM griseofulvin, 10 μM diclofenac) and then centrifuged (4800 x g, room temperature, 5 min) before analysis by UHPLC-MS/HRMS.
The amount of compound in the samples was expressed as percentage of remaining compound compared to time point zero (=100%). These percentages were plotted against the corresponding time points. In vitro intrinsic clearance (CLint) and half-life (t1/2) estimates were determined using the rate of precursor disappearance and following formula, based on the well-stirred liver model (Obach 1999):
t1/2 = half-life [min]; k = slope from the linear regression of log [test compound] versus time plot [1/min]
Where CLint = in vitro intrinsic clearance [μl/min/10^6 cells]; t1/2 = half-life [min]; k = slope of the linear regression of log [test compound] versus time plot [1/min]; V = ratio of incubation volume and cell number and fu = unbound fraction in the blood. […]

[3] = test system: HepG2 reporter cell lines; assay: ToxProfiler cell stress assay; type: cell-based, human
[4] = test system: panel of 83 pharmacological targets
Description: The set of targets was extended to broaden the biological coverage.
Results showing an inhibition or stimulation higher than 50% are considered to represent significant effects (i.e. a “hit”).

COX2(h) = biological target: T1, COX2(h) (Homo sapiens, UniProt P35354); assay: Pharmacology profiling: COX2; type: biochemical
T1 sequence (P35354 18-604): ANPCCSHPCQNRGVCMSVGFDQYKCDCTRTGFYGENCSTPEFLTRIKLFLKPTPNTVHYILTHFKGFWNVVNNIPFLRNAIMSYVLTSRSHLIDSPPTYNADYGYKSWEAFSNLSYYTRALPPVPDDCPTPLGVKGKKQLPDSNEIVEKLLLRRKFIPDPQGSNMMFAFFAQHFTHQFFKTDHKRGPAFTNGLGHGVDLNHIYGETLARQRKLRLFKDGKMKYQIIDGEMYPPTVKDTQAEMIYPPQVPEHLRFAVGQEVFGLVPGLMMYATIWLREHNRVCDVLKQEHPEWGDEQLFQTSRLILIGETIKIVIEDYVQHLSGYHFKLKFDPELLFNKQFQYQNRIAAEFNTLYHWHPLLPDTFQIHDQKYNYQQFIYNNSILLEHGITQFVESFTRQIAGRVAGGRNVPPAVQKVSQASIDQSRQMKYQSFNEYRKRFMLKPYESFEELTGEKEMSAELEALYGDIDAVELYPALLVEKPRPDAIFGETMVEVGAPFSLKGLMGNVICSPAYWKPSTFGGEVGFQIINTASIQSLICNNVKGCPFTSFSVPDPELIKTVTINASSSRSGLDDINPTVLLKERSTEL

Human MDR1 = Human MDR1 (Homo sapiens, UniProt P08183); conditions: not told
Sequence of Human MDR1 (P08183 whole entry): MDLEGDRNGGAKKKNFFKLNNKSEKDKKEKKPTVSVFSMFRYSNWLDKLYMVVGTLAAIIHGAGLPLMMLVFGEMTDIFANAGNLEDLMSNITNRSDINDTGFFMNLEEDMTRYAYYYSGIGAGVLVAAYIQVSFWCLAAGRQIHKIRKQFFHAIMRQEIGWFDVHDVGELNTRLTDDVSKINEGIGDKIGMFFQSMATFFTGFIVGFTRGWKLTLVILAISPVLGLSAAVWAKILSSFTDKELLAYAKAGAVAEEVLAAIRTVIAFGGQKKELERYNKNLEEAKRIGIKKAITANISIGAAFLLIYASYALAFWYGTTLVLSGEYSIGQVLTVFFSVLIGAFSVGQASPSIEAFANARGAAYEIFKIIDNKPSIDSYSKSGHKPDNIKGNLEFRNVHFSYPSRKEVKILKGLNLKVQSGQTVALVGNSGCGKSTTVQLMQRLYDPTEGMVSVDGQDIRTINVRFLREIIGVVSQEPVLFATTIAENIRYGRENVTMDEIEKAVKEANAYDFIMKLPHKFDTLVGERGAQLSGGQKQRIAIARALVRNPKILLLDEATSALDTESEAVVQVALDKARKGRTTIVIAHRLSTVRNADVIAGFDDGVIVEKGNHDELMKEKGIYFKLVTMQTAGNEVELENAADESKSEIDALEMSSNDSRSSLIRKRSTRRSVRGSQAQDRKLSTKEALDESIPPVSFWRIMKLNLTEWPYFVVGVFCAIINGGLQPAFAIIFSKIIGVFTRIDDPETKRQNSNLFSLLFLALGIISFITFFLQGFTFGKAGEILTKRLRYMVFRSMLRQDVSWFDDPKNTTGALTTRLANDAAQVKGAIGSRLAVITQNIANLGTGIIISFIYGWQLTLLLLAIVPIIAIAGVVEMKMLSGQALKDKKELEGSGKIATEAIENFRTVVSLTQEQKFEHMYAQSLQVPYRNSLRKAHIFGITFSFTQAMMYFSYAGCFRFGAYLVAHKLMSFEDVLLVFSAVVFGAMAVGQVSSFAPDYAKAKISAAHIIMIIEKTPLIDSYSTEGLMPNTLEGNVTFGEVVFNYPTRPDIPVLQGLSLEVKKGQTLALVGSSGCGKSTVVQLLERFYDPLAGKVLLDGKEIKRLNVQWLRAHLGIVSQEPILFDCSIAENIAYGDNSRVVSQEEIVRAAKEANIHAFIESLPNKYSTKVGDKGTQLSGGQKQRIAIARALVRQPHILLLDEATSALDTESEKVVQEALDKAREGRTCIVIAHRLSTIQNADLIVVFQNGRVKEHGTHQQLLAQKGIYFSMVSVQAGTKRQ

Human OAT2v1 = Human OAT2v1 (Homo sapiens, UniProt Q9Y694)
Sequence of Human OAT2v1 (Q9Y694 1-546 isoform Q9Y694-2): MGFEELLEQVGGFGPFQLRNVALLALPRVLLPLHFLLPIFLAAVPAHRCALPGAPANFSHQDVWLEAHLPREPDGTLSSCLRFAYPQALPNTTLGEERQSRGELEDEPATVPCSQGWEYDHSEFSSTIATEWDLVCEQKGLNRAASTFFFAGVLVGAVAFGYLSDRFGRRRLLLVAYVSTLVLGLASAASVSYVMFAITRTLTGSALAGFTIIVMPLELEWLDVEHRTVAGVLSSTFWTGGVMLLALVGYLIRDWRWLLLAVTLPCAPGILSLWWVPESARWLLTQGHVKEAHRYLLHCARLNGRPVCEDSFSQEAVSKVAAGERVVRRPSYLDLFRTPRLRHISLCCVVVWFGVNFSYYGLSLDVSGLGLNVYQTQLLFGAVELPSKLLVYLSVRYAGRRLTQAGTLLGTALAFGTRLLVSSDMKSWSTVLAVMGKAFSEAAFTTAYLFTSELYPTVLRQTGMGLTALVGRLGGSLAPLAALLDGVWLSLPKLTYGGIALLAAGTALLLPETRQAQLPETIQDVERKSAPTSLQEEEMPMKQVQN

Human OAT3 = Human OAT3 (Homo sapiens, UniProt Q8TCC7)
Sequence of Human OAT3 (Q8TCC7 whole entry): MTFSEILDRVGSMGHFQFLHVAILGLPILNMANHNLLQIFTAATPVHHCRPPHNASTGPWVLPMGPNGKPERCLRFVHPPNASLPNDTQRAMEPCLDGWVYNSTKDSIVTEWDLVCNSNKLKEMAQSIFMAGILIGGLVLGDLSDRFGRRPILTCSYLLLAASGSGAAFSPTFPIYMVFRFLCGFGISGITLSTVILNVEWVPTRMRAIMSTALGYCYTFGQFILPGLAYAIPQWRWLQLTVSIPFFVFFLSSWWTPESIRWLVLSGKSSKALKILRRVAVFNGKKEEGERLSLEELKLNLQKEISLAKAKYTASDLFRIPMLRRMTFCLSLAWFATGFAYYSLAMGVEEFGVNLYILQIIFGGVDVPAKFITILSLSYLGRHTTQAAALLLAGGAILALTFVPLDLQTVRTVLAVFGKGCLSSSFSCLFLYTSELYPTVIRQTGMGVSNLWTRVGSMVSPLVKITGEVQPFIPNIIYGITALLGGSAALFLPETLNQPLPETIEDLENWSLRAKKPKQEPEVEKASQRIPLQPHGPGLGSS

HepG2 cells [5] = conditions: human, 24 h
hPTCs = conditions: human, 72 h
estrogen receptor (ER) = conditions: ref ToxCast, cited from earlier work
androgen receptor (AR) = test system: androgen receptor (AR); parameters: method as in ToxCast; conditions: ref ToxCast, cited from earlier work
estrogen receptor [6] = test system: estrogen receptor; parameters: method as in ToxCast database; conditions: ref ToxCast database; cited from earlier work
estrogen receptor [7] = test system: estrogen receptor; parameters: method as in ToxCast database; conditions: ref ToxCast database; cited from earlier work; remark: listed apart in the source
estrogen receptor [8] = test system: estrogen receptor; parameters: method as in ToxCast database; conditions: ref ToxCast database; cited from earlier work; remark: listed apart in the source
androgen receptor [9] = test system: androgen receptor; parameters: method as in ToxCast database; conditions: ref ToxCast database; cited from earlier work
androgen receptor [10] = test system: androgen receptor; parameters: method as in ToxCast database; conditions: ref ToxCast database; cited from earlier work; remark: listed apart in the source
androgen receptor [11] = test system: androgen receptor; parameters: method as in ToxCast database; conditions: ref ToxCast database; cited from earlier work; remark: listed apart in the source
androgen receptor [12] = test system: androgen receptor; parameters: method as in ToxCast database; conditions: ref ToxCast database; cited from earlier work; remark: listed apart in the source
THRa = test system: THRa; parameters: method as in ToxCast database; conditions: ref ToxCast database; cited from earlier work
TSHR = test system: TSHR; parameters: method as in ToxCast database; conditions: ref ToxCast database; cited from earlier work
in vitro [13] = conditions: human, plasma
[14] = ref PubChem or the ECHA database; cited from earlier work
HepG2 cells [15] = assay: Whole-genome transcriptomics dose response (toxicogenomics); conditions: analysis method 1; HepG2, 24 h

SMILES: O=C(O)c1ccccc1O [SA, salicylic acid]
- Dermal absorption of individual analytes [1]: 6.9 ± 0.4 percentage of the applied dose
- Further metabolism in PHH (in vitro [2]): not metabolized further
- half-life at 20 µM (in vitro [2]; both sexes, human, hepatocytes, Half-life in PHH): > 15.8 h
- hepatocyte CLint at 20 µM (in vitro [2]; both sexes, human, hepatocytes, In vitro intrinsic clearance (CLint, in vitro)): ~0.9 µL/min/1e6 cells
- Further metabolism in PHH (in vitro [2]; both, human, 240 min, 20 µM): not further metabolized
- PoD ([3]; ICAM1 (indicating inflammation), tested 10 μM to 10 mM): 4,000 µM
- Stress pathway reporters activated ([3]; seven reporters): activated only ICAM1
- PoD [4]: ≥10,000 µM
- Effect on panel targets ([4]; up to millimolar concentrations): none of the targets tested were significantly impacted
- IC50 (COX2(h)): > 10 mM
- Inhibition of COX2, screening (COX2(h); 10 µM): did not inhibit
- inhibition at 10000 µM (COX2(h); 10 mM): 29%
- Substrate of MDR1 (efflux) (Human MDR1): not a substrate
- Substrate of OAT2v1 (uptake) (Human OAT2v1): not a substrate
- Substrate of OAT3 (uptake) (Human OAT3): borderline substrate
- Fraction unbound in the plasma (Fup): 3 to ∼20
- PoD (BMDL, lowest pathway) (HepG2 cells [5]): 213 μM (method 1) µM
- PoD (hPTCs): >300 µM
- Estrogen: Experimental Data (call) (estrogen receptor (ER); Tier 0): Negative
- Estrogen: assays active / assays (estrogen receptor (ER)): 0/18 active
- Androgen: Experimental Data (call) (androgen receptor (AR); Tier 0): Negative
- Androgen: assays active / assays (androgen receptor (AR)): 1/15 active (noise)
- Estrogen pathway Dimerisation: Call (estrogen receptor [6]): Negative
- Estrogen pathway Reporter protein Agonist: Call (estrogen receptor [7]): Negative
- Estrogen pathway Reporter protein Antagonist: Call (estrogen receptor [8]): Negative
- Androgen pathway receptor binding: Call (androgen receptor [9]): Negative
- Androgen pathway mRNA induction: Call (androgen receptor [10]): Negative
- Androgen pathway Reporter protein Agonist: Call (androgen receptor [11]): Negative
- Androgen pathway Reporter protein Antagonist: Call (androgen receptor [12]): Negative
- Thyroid pathway receptor binding (THRa): Call (THRa): Negative
- Thyroid pathway Regulation of transcription factor activity (TSHR): Call (TSHR): Negative
- fraction unbound (in vitro [13]): 0.029 to 0.18
- Vapor pressure [14]: 0.0208 Pa
- PoD (BMDL, lowest pathway) (HepG2 cells [15]): 213 µM
